SMILES strings stand for the structures.

This passage reports IC50 results from the Kinase Knowledgebase extract (Sharma et al. 2016).

Chain of EGFR (P00533 whole entry, looked up): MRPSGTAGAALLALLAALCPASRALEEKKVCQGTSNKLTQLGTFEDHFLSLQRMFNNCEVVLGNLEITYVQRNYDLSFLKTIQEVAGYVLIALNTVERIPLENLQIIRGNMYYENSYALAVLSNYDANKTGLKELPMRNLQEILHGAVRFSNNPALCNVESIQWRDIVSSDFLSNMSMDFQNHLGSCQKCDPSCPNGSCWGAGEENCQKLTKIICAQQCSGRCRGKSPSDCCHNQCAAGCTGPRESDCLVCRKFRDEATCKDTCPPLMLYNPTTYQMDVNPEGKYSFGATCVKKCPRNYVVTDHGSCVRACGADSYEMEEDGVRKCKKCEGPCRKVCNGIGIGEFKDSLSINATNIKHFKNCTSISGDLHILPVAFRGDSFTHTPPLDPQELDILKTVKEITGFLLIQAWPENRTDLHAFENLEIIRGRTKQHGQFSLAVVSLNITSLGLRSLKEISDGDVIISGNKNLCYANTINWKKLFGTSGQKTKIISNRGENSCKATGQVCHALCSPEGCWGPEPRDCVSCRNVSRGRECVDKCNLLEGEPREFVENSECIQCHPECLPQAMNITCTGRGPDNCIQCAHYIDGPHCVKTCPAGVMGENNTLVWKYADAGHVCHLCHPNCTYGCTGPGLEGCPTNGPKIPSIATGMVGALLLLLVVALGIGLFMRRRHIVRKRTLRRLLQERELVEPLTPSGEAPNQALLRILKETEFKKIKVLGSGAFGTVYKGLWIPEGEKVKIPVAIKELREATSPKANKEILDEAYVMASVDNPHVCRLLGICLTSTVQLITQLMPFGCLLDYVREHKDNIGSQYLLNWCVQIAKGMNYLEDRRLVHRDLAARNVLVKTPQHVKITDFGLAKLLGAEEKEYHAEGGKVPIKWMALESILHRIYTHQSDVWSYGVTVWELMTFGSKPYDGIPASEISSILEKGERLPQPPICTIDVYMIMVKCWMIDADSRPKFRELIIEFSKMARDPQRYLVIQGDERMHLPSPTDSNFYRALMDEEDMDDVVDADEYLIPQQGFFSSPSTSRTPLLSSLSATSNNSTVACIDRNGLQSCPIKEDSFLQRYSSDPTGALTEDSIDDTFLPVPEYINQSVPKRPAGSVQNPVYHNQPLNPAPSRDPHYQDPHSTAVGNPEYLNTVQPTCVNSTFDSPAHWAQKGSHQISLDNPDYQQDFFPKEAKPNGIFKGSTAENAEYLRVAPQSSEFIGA

This experiment concerns the target EGFR (UniProt P00533).
In turn, `COc1ccc(Nc2ccnc(Nc3ccc(OC)c(OC)c3)n2)cc1OC` showed an IC50 of at least 10 µM.

For the compound `COc1cc(Nc2ccnc(Nc3ccc(OCc4ccccc4)cc3)n2)cc(OC)c1OC`, the IC50 was at least 10 µM.

Regarding `COc1cc(Nc2ccnc(Nc3ccc4c(cnn4Cc4ccccc4)c3)n2)cc(OC)c1OC`, the IC50 lay within 1.5 to 5 µM.

`Clc1cccc(Nc2ccnc(Nc3cccc(Cl)c3)n2)c1`: the IC50 was at least 10 µM.

For the compound `COc1cc(Nc2nccc(-n3c(=O)oc4ccccc43)n2)cc(OC)c1OC`, the IC50 is at least 10 µM.

`COc1cc(Nc2nccc(Nc3cc(C(C)(C)C)n[nH]3)n2)cc(OC)c1OC` gave an IC50 of 5 to 10 µM.

`COc1ccc(-c2ccn(-c3ccnc(Nc4cc(OC)c(OC)c(OC)c4)n3)n2)cc1` registered an IC50 of 5 to 10 µM.

`COc1cc(Nc2nccc(Nc3ccc4c(cnn4Cc4ccccc4)c3)n2)cc(OC)c1OC` had an IC50 of under 1.5 µM.

For the compound `COc1cc(Nc2ccnc(-n3ccc4ccccc43)n2)cc(OC)c1OC`, the IC50 is at least 10 µM.

For the compound `Cc1cccc(Nc2ccnc(Nc3cccc(Br)c3)n2)c1`, the half-inhibitory concentration (IC50) is at least 10 µM.

For the compound `COc1cc(Nc2nccc(-n3c(N)nc4ccccc43)n2)cc(OC)c1OC`, the IC50 was at least 10 µM.

Consider `COc1cc(Nc2nccc(-n3ccc4ccccc43)n2)cc(OC)c1OC`, for which the IC50 is at least 10 µM.

`Cc1cccc(Nc2nccc(Nc3cccc(Br)c3)n2)c1` came in with an IC50 of at least 10 µM.

`COc1cc(Nc2ccnc(Nc3ccc(Oc4ccccc4)cc3)n2)cc(OC)c1OC` showed an IC50 of 5 to 10 µM.

With `COc1cc(Nc2nccc(-n3c(=O)[nH]c4ccccc43)n2)cc(OC)c1OC`, the IC50 is at least 10 µM.

In turn, `COc1cc(Nc2nccc(-n3ccc(-c4ccc(Cl)cc4)n3)n2)cc(OC)c1OC` registered an IC50 of at least 10 µM.

The term IC50 denotes the concentration needed to halve the response being measured.
